Assays:
[1] = biological target: T1, Aurora kinase C (Homo sapiens) (UniProt Q9UQB9); assay: Residual activity of Aurora-C at 0.1 uM by microplate scintillation counting
T1 sequence (whole entry): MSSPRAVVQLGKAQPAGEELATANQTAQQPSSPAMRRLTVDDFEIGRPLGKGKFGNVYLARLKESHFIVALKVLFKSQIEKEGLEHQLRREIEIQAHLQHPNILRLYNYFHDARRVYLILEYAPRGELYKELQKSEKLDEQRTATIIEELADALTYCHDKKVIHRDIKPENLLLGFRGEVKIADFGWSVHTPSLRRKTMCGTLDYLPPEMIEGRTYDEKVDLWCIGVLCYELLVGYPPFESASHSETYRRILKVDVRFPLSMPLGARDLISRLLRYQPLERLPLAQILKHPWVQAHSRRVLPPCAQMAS

[2] = biological target: T2, Serine/threonine-protein kinase BRSK1 (Homo sapiens) (UniProt Q8TDC3); assay: Residual activity of BRSK1 at 0.1 uM by microplate scintillation counting
T2 sequence (whole entry): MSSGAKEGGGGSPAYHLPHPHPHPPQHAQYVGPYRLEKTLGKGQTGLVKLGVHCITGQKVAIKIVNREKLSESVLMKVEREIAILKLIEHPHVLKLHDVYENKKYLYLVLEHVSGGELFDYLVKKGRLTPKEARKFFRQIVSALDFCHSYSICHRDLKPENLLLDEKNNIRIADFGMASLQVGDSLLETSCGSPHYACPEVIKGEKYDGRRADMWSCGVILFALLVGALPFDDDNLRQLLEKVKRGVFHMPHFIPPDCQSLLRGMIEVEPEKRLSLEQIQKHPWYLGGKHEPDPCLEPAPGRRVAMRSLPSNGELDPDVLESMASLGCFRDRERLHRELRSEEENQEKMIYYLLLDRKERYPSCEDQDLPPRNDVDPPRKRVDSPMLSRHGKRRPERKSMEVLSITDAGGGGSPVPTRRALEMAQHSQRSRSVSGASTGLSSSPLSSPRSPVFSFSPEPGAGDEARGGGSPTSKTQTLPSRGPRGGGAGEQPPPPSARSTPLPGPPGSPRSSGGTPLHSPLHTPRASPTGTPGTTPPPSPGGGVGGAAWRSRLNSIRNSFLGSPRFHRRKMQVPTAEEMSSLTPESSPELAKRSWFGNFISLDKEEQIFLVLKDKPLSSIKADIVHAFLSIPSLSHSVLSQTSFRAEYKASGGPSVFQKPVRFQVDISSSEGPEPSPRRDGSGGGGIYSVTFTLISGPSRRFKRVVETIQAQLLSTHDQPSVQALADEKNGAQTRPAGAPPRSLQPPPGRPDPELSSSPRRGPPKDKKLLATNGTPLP

[3] = biological target: Tyrosine-protein kinase BTK (Homo sapiens) (UniProt Q06187); assay: Residual activity of BTK at 0.1 uM by microplate scintillation counting
[4] = biological target: T3, Activin receptor type-1 (Homo sapiens) (UniProt Q04771); assay: Residual activity of ACV-R1 at 1 uM by microplate scintillation counting
T3 sequence (whole entry): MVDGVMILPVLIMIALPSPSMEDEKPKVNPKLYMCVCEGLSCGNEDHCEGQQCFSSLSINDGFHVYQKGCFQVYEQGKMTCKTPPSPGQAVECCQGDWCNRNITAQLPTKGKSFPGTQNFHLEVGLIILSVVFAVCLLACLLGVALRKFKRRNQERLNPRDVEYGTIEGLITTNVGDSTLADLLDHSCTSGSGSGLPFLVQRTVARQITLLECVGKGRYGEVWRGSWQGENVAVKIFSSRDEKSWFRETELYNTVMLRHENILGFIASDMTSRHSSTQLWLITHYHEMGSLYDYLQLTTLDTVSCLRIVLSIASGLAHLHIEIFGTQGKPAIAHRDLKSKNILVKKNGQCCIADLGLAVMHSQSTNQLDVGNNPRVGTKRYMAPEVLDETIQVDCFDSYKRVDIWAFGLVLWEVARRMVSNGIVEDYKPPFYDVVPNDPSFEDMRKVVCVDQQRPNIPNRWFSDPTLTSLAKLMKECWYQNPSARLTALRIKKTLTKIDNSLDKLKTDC

[5] = biological target: T4, Serine/threonine-protein kinase 17A (Homo sapiens) (UniProt Q9UEE5); assay: Residual activity of STK17A at 0.1 uM by microplate scintillation counting
T4 sequence (whole entry): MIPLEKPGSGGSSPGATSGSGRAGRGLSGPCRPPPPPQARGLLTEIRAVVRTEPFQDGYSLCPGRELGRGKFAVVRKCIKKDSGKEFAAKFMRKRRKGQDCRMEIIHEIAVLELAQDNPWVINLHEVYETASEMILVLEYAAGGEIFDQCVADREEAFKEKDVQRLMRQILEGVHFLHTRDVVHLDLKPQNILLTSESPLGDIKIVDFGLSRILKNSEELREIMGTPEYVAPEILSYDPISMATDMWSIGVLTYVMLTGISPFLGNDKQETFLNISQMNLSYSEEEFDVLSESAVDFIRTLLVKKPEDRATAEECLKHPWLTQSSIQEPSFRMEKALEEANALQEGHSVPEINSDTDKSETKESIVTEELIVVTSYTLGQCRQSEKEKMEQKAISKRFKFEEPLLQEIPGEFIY

[6] = tested on: Tyrosine-protein kinase ABL1 (Homo sapiens), P00519 [T315I]; assay: Residual activity of ABL1 T315I mutant at 10 uM by microplate scintillation counting
[7] = biological target: Activated CDC42 kinase 1 (Homo sapiens) (UniProt Q07912); assay: Residual activity of ACK1 at 10 uM by microplate scintillation counting
[8] = biological target: RAC-beta serine/threonine-protein kinase (Homo sapiens) (UniProt P31751); assay: Residual activity of AKT2 at 0.1 uM by microplate scintillation counting
[9] = biological target: Serine/threonine-protein kinase Nek7 (Homo sapiens) (UniProt Q8TDX7); assay: Residual activity of NEK7 at 10 uM by microplate scintillation counting
[10] = biological target: T2, Serine/threonine-protein kinase BRSK1 (Homo sapiens); assay: Residual activity of BRSK1 at 10 uM by microplate scintillation counting
[11] = biological target: Tyrosine-protein kinase JAK2 (Homo sapiens) (UniProt O60674); assay: Residual activity of JAK2 at 1 uM by microplate scintillation counting
[12] = biological target: Serine/threonine-protein kinase N2 (Homo sapiens) (UniProt Q16513); assay: Residual activity of PRK2 at 0.1 uM by microplate scintillation counting
[13] = biological target: ALK tyrosine kinase receptor (Homo sapiens) (UniProt Q9UM73); assay: Residual activity of ALK at 10 uM by microplate scintillation counting
Chain of ALK tyrosine kinase receptor (Homo sapiens) (Q9UM73 19-1620 limits assumed): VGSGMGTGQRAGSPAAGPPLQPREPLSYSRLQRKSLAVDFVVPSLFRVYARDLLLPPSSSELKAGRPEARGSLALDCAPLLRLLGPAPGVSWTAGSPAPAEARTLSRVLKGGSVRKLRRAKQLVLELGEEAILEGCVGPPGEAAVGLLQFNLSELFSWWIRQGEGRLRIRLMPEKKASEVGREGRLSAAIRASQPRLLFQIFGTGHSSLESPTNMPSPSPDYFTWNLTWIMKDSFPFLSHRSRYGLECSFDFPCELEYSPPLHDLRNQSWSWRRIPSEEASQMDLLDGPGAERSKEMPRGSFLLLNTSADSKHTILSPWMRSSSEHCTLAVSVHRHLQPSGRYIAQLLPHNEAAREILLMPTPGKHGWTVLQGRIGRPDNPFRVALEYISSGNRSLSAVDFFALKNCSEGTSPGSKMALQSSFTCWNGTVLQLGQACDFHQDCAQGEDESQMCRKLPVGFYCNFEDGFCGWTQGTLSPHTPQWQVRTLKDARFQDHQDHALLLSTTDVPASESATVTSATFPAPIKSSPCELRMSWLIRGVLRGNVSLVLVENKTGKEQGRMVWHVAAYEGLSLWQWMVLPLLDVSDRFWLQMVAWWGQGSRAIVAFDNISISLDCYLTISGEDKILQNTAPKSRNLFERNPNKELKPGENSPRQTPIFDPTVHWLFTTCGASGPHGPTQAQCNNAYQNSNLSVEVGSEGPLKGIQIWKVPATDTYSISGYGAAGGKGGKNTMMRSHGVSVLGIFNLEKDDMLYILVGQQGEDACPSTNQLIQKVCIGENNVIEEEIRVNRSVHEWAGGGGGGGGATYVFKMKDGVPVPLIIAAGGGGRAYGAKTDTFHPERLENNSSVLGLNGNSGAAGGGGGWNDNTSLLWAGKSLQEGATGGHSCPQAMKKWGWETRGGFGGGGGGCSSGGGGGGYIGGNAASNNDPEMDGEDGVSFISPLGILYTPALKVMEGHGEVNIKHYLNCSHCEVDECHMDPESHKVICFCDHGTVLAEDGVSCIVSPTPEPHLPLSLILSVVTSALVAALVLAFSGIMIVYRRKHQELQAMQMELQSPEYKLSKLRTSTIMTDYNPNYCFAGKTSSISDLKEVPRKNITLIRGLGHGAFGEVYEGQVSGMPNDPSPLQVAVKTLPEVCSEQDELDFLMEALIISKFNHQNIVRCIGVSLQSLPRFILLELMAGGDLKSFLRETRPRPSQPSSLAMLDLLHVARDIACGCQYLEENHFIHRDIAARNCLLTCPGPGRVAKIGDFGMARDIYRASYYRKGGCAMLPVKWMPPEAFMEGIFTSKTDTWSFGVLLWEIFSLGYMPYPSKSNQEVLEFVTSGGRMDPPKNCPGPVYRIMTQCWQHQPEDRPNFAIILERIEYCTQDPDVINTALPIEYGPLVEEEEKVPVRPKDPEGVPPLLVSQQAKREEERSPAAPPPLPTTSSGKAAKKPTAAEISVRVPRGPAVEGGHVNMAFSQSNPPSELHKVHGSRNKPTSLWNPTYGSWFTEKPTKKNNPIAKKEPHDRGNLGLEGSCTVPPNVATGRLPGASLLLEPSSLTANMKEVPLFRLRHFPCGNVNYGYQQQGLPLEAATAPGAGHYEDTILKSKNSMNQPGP

Chain of Tyrosine-protein kinase JAK2 (Homo sapiens) (O60674 whole entry): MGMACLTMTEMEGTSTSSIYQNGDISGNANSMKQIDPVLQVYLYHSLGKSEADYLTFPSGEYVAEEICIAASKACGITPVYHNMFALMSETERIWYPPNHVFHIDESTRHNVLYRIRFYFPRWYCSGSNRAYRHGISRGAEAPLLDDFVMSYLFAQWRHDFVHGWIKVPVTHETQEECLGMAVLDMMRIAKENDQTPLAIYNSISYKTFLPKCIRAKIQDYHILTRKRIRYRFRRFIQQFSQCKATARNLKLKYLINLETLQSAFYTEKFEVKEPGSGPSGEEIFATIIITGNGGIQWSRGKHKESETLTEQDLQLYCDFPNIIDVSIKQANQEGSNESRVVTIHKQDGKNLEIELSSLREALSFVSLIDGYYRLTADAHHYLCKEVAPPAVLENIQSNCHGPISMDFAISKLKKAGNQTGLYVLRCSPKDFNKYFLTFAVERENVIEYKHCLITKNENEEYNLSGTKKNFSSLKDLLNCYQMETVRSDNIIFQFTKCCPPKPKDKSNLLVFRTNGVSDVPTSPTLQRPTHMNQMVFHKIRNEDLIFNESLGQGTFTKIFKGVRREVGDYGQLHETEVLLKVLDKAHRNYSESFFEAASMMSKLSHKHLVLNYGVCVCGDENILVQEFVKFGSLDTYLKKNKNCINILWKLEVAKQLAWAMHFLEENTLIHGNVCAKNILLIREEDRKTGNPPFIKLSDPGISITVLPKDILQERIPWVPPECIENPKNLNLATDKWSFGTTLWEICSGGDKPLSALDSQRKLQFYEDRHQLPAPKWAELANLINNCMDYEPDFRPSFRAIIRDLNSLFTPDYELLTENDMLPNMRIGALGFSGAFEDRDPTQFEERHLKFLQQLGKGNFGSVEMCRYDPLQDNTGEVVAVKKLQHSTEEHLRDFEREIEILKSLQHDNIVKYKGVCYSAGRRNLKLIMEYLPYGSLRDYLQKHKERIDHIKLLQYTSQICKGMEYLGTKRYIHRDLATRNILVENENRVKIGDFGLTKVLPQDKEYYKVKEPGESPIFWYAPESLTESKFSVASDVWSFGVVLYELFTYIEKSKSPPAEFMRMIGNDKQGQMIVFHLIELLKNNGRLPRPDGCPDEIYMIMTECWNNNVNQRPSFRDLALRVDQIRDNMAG
Chain of Serine/threonine-protein kinase Nek7 (Homo sapiens) (Q8TDX7 whole entry, looked up): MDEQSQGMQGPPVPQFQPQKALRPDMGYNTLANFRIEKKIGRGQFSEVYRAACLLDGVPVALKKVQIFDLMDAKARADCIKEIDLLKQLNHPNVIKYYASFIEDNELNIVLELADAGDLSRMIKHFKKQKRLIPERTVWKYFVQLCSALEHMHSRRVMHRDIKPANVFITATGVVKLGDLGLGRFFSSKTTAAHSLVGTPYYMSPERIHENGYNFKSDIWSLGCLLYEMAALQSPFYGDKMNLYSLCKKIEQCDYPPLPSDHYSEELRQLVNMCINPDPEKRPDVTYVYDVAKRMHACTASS
Chain of RAC-beta serine/threonine-protein kinase (Homo sapiens) (P31751 whole entry): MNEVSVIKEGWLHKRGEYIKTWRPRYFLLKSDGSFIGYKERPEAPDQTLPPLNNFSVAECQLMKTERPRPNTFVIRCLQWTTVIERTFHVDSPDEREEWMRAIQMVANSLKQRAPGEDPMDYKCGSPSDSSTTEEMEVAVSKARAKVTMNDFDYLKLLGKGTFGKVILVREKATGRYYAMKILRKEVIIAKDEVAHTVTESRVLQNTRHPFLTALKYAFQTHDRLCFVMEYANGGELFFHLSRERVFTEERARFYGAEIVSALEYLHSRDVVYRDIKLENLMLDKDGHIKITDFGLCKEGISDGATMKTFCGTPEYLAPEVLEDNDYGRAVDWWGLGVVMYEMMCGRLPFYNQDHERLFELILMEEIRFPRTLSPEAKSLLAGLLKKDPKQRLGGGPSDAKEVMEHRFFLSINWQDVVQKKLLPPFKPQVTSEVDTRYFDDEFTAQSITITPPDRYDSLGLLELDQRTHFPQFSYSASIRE
Chain of Serine/threonine-protein kinase N2 (Homo sapiens) (Q16513 whole entry, looked up): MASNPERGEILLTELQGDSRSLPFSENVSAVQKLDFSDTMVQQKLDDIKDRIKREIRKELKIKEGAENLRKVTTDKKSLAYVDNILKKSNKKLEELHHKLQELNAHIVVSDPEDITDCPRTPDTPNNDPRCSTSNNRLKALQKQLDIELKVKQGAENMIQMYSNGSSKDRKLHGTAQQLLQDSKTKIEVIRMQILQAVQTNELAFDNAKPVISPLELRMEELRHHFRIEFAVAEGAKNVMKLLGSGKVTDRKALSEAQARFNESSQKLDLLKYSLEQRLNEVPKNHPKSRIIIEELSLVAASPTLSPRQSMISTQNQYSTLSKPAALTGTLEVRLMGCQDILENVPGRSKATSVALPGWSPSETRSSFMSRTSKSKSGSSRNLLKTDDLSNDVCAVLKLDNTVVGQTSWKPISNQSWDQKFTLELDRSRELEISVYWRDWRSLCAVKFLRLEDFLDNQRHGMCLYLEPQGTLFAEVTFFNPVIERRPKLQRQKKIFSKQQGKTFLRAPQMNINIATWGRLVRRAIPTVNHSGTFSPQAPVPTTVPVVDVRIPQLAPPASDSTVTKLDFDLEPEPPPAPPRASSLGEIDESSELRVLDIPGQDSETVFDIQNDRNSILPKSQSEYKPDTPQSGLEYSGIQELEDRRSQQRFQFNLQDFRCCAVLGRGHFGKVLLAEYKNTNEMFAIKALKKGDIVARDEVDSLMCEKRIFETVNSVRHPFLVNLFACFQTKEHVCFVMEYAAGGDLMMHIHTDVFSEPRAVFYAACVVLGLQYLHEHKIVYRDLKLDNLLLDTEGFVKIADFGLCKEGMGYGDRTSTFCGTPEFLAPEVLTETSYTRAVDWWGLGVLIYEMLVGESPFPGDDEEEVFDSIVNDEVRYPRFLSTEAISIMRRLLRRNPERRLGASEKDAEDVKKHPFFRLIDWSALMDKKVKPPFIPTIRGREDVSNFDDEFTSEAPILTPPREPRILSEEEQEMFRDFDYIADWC

residual activity [1] [%] | residual activity [2] [%] | residual activity [3] [%] | residual activity [4] [%] | residual activity [5] [%] | residual activity [6] [%] | residual activity [7] [%] | residual activity [8] [%] | residual activity [9] [%] | residual activity [10] [%] | residual activity [11] [%] | residual activity [12] [%] | residual activity [13] [%] | Compound
42 | 95 | 100 | 89 | 66 | 44 | 35 | 97 | 254 | 100 | 96 | 65 | 329 | COc1cc2c(Oc3ccc(-c4nc5ccccc5s4)cc3)ncnc2cc1OCCCN1CCN(C)CC1
42 | 94 | 106 | 85 | 66 | 43 | 31 | 102 | 224 | 99 | 95 | 99 | 414 | COc1cc2c(Oc3ccc(-c4nc5ccccc5s4)cc3)ncnc2cc1OCCCN1CCCC1
48 | 85 | 101 | 93 | 87 | 31 | 40 | 108 | 239 | 103 | 97 | 72 | 180 | COc1cc2c(Oc3ccc(-c4nc5ccccc5s4)cc3F)ncnc2cc1OCCCN1CCN(C)CC1
